Columns and labels:
Format in all cases: cell-based
Ole1 = target: T1, Ole1 (Saccharomyces cerevisiae, UniProt P21147); test: Growth inhibition of yeast strain expressing Ole1 as sole desaturase; conditions: yeast strain expressing Ole1 as sole desaturase
T1 construct: expressed in transfected cells; host or cells: S. cerevisiae ole1Δ strain (W303 pdr1Δ pdr3Δ background), plasmid pRS316 with TDH3 promoter and CYC1 terminator
T1 sequence (P21147 1-510): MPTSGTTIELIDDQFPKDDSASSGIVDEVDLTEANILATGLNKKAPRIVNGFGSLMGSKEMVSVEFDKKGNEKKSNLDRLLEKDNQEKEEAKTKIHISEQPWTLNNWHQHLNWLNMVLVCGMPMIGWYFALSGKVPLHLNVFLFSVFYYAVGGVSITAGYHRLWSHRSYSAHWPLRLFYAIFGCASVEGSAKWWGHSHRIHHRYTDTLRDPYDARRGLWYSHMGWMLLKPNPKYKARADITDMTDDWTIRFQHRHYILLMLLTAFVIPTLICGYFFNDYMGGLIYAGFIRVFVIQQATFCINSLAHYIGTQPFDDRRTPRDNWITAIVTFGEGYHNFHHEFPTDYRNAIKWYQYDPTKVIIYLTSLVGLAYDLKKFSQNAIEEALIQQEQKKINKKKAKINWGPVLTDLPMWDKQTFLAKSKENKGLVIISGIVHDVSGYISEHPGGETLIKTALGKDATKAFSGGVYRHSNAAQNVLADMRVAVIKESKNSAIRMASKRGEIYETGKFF
How it was run: (§1)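 Plasmid-complemented ole1Δ yeast, drug-pump deleted (pdr1Δ pdr3Δ), depend solely on the introduced Ole1, SCD1 or SCD5 desaturase. Compounds are added from DMSO to cells in uracil-free galactose medium, 2× density 0.02, and OD600 is read after 24 h or 40 h respectively.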

SCD1 = target: T2, SCD1 (Homo sapiens, UniProt O00767); test: Growth inhibition of humanized yeast strain expressing SCD1 as sole desaturase; conditions: humanized yeast strain expressing SCD1
T2 construct: host or cells: S. cerevisiae ole1Δ strain (W303 pdr1Δ pdr3Δ background), plasmid pRS316 with TDH3 promoter and CYC1 terminator
T2 sequence (O00767 1-359): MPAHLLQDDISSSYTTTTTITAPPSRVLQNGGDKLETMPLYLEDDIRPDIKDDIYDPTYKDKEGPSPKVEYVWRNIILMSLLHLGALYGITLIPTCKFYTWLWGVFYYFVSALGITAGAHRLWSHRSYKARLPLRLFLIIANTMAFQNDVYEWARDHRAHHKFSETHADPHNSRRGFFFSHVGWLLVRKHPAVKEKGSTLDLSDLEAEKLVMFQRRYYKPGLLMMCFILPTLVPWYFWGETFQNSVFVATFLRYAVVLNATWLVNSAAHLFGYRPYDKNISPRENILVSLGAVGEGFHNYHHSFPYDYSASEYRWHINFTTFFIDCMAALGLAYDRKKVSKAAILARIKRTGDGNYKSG
How it was run: as §1

SCD5 = target: T3, SCD5 (Homo sapiens, UniProt Q86SK9); test: Growth inhibition of humanized yeast strain expressing SCD5 as sole desaturase; conditions: humanized yeast strain expressing SCD5
T3 construct: host or cells: S. cerevisiae ole1Δ strain (W303 pdr1Δ pdr3Δ background), plasmid pRS316 with TDH3 promoter and CYC1 terminator
T3 sequence (Q86SK9 1-330): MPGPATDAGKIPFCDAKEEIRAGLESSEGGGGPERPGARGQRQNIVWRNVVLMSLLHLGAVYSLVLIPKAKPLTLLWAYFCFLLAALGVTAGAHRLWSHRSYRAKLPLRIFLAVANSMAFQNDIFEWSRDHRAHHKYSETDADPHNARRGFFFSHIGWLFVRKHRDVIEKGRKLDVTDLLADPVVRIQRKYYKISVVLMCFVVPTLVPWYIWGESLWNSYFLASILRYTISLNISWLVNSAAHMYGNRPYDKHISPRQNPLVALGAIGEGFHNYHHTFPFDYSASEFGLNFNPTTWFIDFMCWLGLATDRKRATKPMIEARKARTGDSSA
How it was run: as §1

Compound: Cc1nn(C)c2cc(-c3noc(C4CCN(C(=O)N5CCOCC5)CC4)n3)ccc12 [Compound 311]
- IC50 (Ole1): > 45 µM
- OLE1 % Max Inhibition (Ole1): 90.8%
- SCD1 % Max Inhibition (SCD1): 72.9%
- IC50 (SCD5): > 45 µM
- SCD5 % Max Inhibition (SCD5): 60.5%

Compound: Cn1c(=O)[nH]c2ccc(-c3noc(C4CCN(C(=O)CNC(=O)c5ccccc5)CC4)n3)cc21 [Compound 162]
- IC50 (Ole1): > 45 µM
- OLE1 % Max Inhibition (Ole1): 100.35%
- IC50 (SCD1): > 45 µM
- SCD1 % Max Inhibition (SCD1): 84.54%
- IC50 (SCD5): > 45 µM
- SCD5 % Max Inhibition (SCD5): 76.89%

Compound: COc1ccc(-c2noc(C3CCN(C(=O)CNC(=O)c4ccccc4)CC3)n2)cc1OC(C)C [Compound 274]
- IC50 (Ole1): > 45 µM
- OLE1 % Max Inhibition (Ole1): 75.9%
- SCD1 % Max Inhibition (SCD1): 75.3%
- IC50 (SCD5): > 45 µM
- SCD5 % Max Inhibition (SCD5): 67.0%

Compound: CCOc1ccc(-c2noc(C3CCN(C(=O)[C@@H]4CN(c5ccccc5)C(=O)O4)CC3)n2)cc1OC [Compound 172]
- IC50 (Ole1): > 45 µM
- OLE1 % Max Inhibition (Ole1): 3.99%
- IC50 (SCD1): > 45 µM
- SCD1 % Max Inhibition (SCD1): 89.39%
- IC50 (SCD5): 41.1 µM
- SCD5 % Max Inhibition (SCD5): 68.80%

Compound: Cc1nn(C)c2cc(-c3noc(C4CCN(C(=O)[C@H]5CC(=O)N(c6ccccc6)C5)C(C)C4)n3)ccc12 (stereo partly shown) [Compound 240]
- IC50 (Ole1): > 45 µM
- OLE1 % Max Inhibition (Ole1): 4.30%
- IC50 (SCD1): > 45 µM
- SCD1 % Max Inhibition (SCD1): 66.85%
- IC50 (SCD5): > 45 µM
- SCD5 % Max Inhibition (SCD5): 12.95%

Compound: Cc1nn(C)c2cc(-c3noc(C4CCN(C(=O)C5CC(=O)N(CC6COC6)C5)CC4)n3)ccc12 (stereo not shown) [Compound 255]
- IC50 (Ole1): > 45 µM
- OLE1 % Max Inhibition (Ole1): 96.25%
- IC50 (SCD1): > 45 µM
- SCD1 % Max Inhibition (SCD1): 72.70%
- IC50 (SCD5): 30 µM
- SCD5 % Max Inhibition (SCD5): 64.50%

Compound: CC(C)n1ncc2ccc(-c3noc(C4CCN(C(=O)CNC(=O)c5ccccc5)CC4)n3)cc21 [Compound 171]
- IC50 (Ole1): > 45 µM
- OLE1 % Max Inhibition (Ole1): 6.77%
- IC50 (SCD1): 40.4 µM
- SCD1 % Max Inhibition (SCD1): 74.21%
- IC50 (SCD5): > 45 µM
- SCD5 % Max Inhibition (SCD5): −0.14%

Compound: Cc1nn(C)c2cc(-c3noc(C4CCN(C(=O)CNC(=O)c5cccnc5)CC4)n3)ccc12 [Compound 197]
- IC50 (Ole1): > 45 µM
- OLE1 % Max Inhibition (Ole1): 4.80%
- IC50 (SCD1): > 45 µM
- SCD1 % Max Inhibition (SCD1): 66.87%
- IC50 (SCD5): > 45 µM
- SCD5 % Max Inhibition (SCD5): 61.44%

Compound: COc1ccc(-c2noc(C3CCNCC3)n2)cc1OC [Compound 488]
- IC50 (Ole1): > 45 µM
- OLE1 % Max Inhibition (Ole1): 90.53%
- SCD1 % Max Inhibition (SCD1): 75.87%
- IC50 (SCD5): > 45 µM
- SCD5 % Max Inhibition (SCD5): 72.82%

Compound: Cc1nn(C)c2cc(-c3noc(C4CCN(C(=O)c5ccc(C(C)C)cc5)CC4)n3)ccc12 [Compound 290]
- IC50 (Ole1): > 45 µM
- OLE1 % Max Inhibition (Ole1): 20.6%
- SCD1 % Max Inhibition (SCD1): 3.3%
- IC50 (SCD5): > 45 µM
- SCD5 % Max Inhibition (SCD5): 8.8%

Compound: Cc1nn(C)c2cc(-c3noc(C4CCN(C(=O)CNC(=O)c5cc(Cl)ccc5C(F)(F)F)CC4)n3)ccc12 [Compound 328]
- IC50 (Ole1): > 45 µM
- OLE1 % Max Inhibition (Ole1): 21.9%
- SCD1 % Max Inhibition (SCD1): 86.6%
- IC50 (SCD5): > 45 µM
- SCD5 % Max Inhibition (SCD5): 80.5%

Compound: Cc1nn(C)c2cc(-c3noc(C4CCN(C(=O)[C@H]5CCN(C(=O)c6ccccc6)C5)CC4)n3)ccc12 [Compound 239]
- IC50 (Ole1): > 45 µM
- OLE1 % Max Inhibition (Ole1): 29.21%
- IC50 (SCD1): > 45 µM
- SCD1 % Max Inhibition (SCD1): 75.58%
- IC50 (SCD5): > 45 µM
- SCD5 % Max Inhibition (SCD5): 6.02%

Compound: CCOc1ccc(-c2noc(C3CCN(C(=O)[C@H]4CCN(C(=O)c5ccccc5)C4)CC3)n2)cc1OC [Compound 234]
- IC50 (Ole1): > 45 µM
- OLE1 % Max Inhibition (Ole1): 84.80%
- IC50 (SCD1): > 45 µM
- SCD1 % Max Inhibition (SCD1): 68.91%
- IC50 (SCD5): > 45 µM
- SCD5 % Max Inhibition (SCD5): 76.83%

Compound: Cn1c(=O)n(C)c2cc(-c3noc(C4CCN(C(=O)[C@H]5CC(=O)N(c6ccccn6)C5)CC4)n3)ccc21 [Compound 256]
- IC50 (Ole1): > 45 µM
- OLE1 % Max Inhibition (Ole1): 4.16%
- SCD1 % Max Inhibition (SCD1): 76.04%
- IC50 (SCD5): > 45 µM
- SCD5 % Max Inhibition (SCD5): 72.11%

Compound: CC(C)c1ccc(C(=O)N2CCC(c3nc(N4CC5(COC5)C4)no3)CC2)cc1 [Compound 337]
- IC50 (Ole1): > 45 µM
- OLE1 % Max Inhibition (Ole1): 86.4%
- SCD1 % Max Inhibition (SCD1): 49.6%
- IC50 (SCD5): > 45 µM
- SCD5 % Max Inhibition (SCD5): 61.6%

Compound: CC(C)(CO)n1ncc2ccc(-c3noc(C4CCN(C(=O)C5CC(=O)N(c6ccccc6)C5)CC4)n3)cc21 (stereo not shown) [Compound 203]
- IC50 (Ole1): > 45 µM
- OLE1 % Max Inhibition (Ole1): 100.03%
- IC50 (SCD1): > 45 µM
- SCD1 % Max Inhibition (SCD1): 84.83%
- IC50 (SCD5): > 45 µM
- SCD5 % Max Inhibition (SCD5): 80.12%

Compound: COc1ccc(-c2noc(C3CCN(C(=O)[C@H](NC(=O)c4ccccc4)C4CC4)CC3)n2)cc1OC [Compound 190]
- IC50 (Ole1): > 45 µM
- OLE1 % Max Inhibition (Ole1): 100.94%
- IC50 (SCD1): > 45 µM
- SCD1 % Max Inhibition (SCD1): 83.53%
- IC50 (SCD5): > 45 µM
- SCD5 % Max Inhibition (SCD5): 19.31%

Compound: Cc1nn(C)c2cc(-c3noc(C4CCN(C(=O)C5CN(C(=O)c6ccccc6)C5)CC4)n3)ccc12 [Compound 236]
- IC50 (Ole1): > 45 µM
- OLE1 % Max Inhibition (Ole1): 8.46%
- IC50 (SCD1): > 45 µM
- SCD1 % Max Inhibition (SCD1): 77.23%
- IC50 (SCD5): > 45 µM
- SCD5 % Max Inhibition (SCD5): 3.14%

Compound: Cc1nn(C)c2cc(-c3noc(C4CCN(C(=O)CC5CC5)CC4)n3)ccc12 [Compound 264]
- IC50 (Ole1): > 45 µM
- OLE1 % Max Inhibition (Ole1): 15.52%
- IC50 (SCD1): 40.8 µM
- SCD1 % Max Inhibition (SCD1): 56.37%
- IC50 (SCD5): > 45 µM
- SCD5 % Max Inhibition (SCD5): 7.97%

Compound: COc1cccc(-c2noc(C3CC(=O)N(c4ccc(C)c(C)c4)C3)n2)c1 (stereo not shown) [Compound 490]
- IC50 (Ole1): > 45 µM
- OLE1 % Max Inhibition (Ole1): 96.38%
- IC50 (SCD1): 38.8 µM
- SCD1 % Max Inhibition (SCD1): 63.84%
- IC50 (SCD5): 35.1 µM
- SCD5 % Max Inhibition (SCD5): 50.39%

Compound: CC1(C)CC(=O)c2c(O)cc(OCC(=O)NCCc3nc(-c4ccccc4)no3)cc2O1 [Compound 487]
- IC50 (Ole1): > 45 µM
- OLE1 % Max Inhibition (Ole1): 103.20%
- SCD1 % Max Inhibition (SCD1): 83.76%
- IC50 (SCD5): 40.2 µM
- SCD5 % Max Inhibition (SCD5): 70.73%

From US11873298B2, “Compounds and uses thereof” (JANSSEN PHARMACEUTICA NV, priority 2017, dated 2024)
